# Experimental data reported in article PMC10525509, “Exploring the Synthetic Chemistry of Phenyl-3-(5-aryl-2-furyl)- 2-propen-1-ones as Urease Inhibitors: Mechanistic Approach through Urease Inhibition, Molecular Docking and Structure–Activity Relationship” (Biomedicines, 2023).
# Target: T1, urease enzyme (Canavalia ensiformis, UniProt P07374)
# T1 construct: purchased CAS Number: 9002-13-5
# Test: Urease inhibition assay (modified Berthelot assay)
# Assay type: biochemical, Canavalia ensiformis (Jack bean)
# Conditions: for inhibition at 100 µM: read-out: %Age Urease Inhibition Activity (0.1 mM)
# Procedure: Chalcones are important medicinal compounds to combat several pathological conditions associated with ureolytic enzymes (urease). […] Urease inhibition assay was performed according to the reported protocol by Pervez et al..
# All reagents and solvents were obtained from the supplier or recrystallized or redistilled as necessary. Thin-layer chromatography was performed using aluminum sheets (Merck) coated with silica gel 60 F254. Urease enzyme was purchased from Canavalia ensiformis (Jack bean), CAS Number: 9002-13-5. IR spectra were recorded using an IR PerkinElmer Spectrum 1 FTIR spectrophotometer, and peaks were reported as ax (neat)/cm^−1, which refer to the […] wave numbers. Proton magnetic resonance spectra were recorded in CDCl3 with a Bruker AM 300 spectrometer (Rheinstetten-Forchheim, Germany) operating at 300 MHz, respectively. The ^13C NMR spectra were recorded in CDCl3 with a Bruker AM 100 spectrometer operating at 100 MHz. Tetramethylsilane was used as an internal standard. Elemental analyses for C, H, and N were recorded with the PerkinElmer 2400 Series II CHN Analyzer. Melting points were recorded on a GallenKamp apparatus and are uncorrected.
# The enzyme assay is a modified form of the commonly known Berthelot assay. A total volume of 85 µL assay mixture contained 10 µL of phosphate buffer at pH 7.0 in each well of the 96-well plate, to which 10 µL of sample solution and 25 µL of enzyme solution (0.1347 units) were added. The contents were pre-incubated at 37 °C for 5 min. Then, 40 µL of urea stock solution (20 mM) was added to each well, and incubation continued at 37 °C for another 10 min. After the given time, 115 µL phenol hypochlorite reagent was added to each well (freshly prepared by mixing 45 µL phenol reagent with 70 µL of alkali reagent). For color development, incubation was performed at 37 °C for another 10 min. Absorbance was measured at 625 nm using the 96-well plate reader Synergy HT.
# T1 sequence (P07374 whole entry, looked up): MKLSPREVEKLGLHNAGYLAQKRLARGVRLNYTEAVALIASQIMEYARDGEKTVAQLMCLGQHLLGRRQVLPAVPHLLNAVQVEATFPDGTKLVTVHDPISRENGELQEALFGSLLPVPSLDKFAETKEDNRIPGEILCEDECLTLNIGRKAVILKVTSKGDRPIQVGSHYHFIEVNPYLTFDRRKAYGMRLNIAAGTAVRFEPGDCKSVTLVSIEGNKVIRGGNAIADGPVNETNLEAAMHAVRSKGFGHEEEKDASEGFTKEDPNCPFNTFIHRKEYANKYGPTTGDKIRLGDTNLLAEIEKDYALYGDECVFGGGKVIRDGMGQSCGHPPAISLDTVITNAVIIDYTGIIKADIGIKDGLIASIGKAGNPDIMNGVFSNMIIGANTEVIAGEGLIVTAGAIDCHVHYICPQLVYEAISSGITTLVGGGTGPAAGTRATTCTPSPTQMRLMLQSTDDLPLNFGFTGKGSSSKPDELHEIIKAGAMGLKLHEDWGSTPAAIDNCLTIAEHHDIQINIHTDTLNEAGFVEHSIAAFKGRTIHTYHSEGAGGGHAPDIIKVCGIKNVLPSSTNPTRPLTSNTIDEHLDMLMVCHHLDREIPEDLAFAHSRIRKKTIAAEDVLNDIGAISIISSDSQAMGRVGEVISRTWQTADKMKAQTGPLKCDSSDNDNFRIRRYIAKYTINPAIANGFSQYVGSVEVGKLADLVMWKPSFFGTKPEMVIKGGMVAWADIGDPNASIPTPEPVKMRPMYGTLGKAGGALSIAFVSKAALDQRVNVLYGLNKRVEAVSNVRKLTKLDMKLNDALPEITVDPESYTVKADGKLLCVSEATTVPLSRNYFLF
compound,measurement,value
"O=C(/C=C/c1ccc(-c2ccc(Cl)c(Cl)c2)o1)c1ccccc1 [Compound 4f, 1-phenyl-3-[5-(3′,4′-dichlorophenyl) -2-furyl]-2-propen-1-one]",IC50,21 ± 3.52 µM
same,inhibition at 100 µM,69.7 ± 1.86%
O=C(/C=C/c1ccc(-c2ccc(Cl)cc2)o1)c1ccccc1 [Compound 4b],urease inhibition activity (in words),inactive
same,inhibition at 100 µM,27.15 ± 0.17%
"O=C(/C=C/c1ccc(-c2ccccc2Cl)o1)c1ccccc1 [Compound 4s, 1-phenyl-3-[5-(2′-chlorophenyl)-2-furyl]-2-propen-1-one]",IC50,18.7 ± 0.85 µM
same,inhibition at 100 µM,71.4 ± 1.77%
O=C(/C=C/c1ccc(-c2ccc(Cl)cc2Cl)o1)c1ccccc1 [Compound 4o],IC50,34 ± 9.61 µM
same,inhibition at 100 µM,54.9 ± 1.98%
O=C(/C=C/c1ccc(-c2ccc([N+](=O)[O-])cc2Cl)o1)c1ccccc1 [Compound 4m],IC50,26.7 ± 0.65 µM
same,inhibition at 100 µM,63.1 ± 0.86%
O=C(O)c1ccc(-c2ccc(/C=C/C(=O)c3ccccc3)o2)cc1 [Compound 4e],IC50,25 ± 1.77 µM
same,urease inhibition activity (in words),inactive
same,inhibition at 100 µM,65.5 ± 0.77%
O=C(/C=C/c1ccc(-c2cccc(Cl)c2[N+](=O)[O-])o1)c1ccccc1 [Compound 4j],IC50,26 ± 2.25 µM
same,inhibition at 100 µM,68.24 ± 0.11%
O=C(/C=C/c1ccc(-c2ccccc2[N+](=O)[O-])o1)c1ccccc1 [Compound 4l],IC50,91.4 ± 6.25 µM
same,inhibition at 100 µM,51.47 ± 0.41%
Cc1cc(-c2ccc(/C=C/C(=O)c3ccccc3)o2)cc([N+](=O)[O-])c1 [Compound 4p],IC50,52.6 ± 8.52 µM
same,inhibition at 100 µM,57.4 ± 3.02%
Cc1c(-c2ccc(/C=C/C(=O)c3ccccc3)o2)cccc1[N+](=O)[O-] [Compound 4r],urease inhibition activity (in words),inactive
same,inhibition at 100 µM,12.6 ± 3.37%
O=C(O)c1cccc(-c2ccc(/C=C/C(=O)c3ccccc3)o2)c1 [Compound 4n],IC50,46.8 ± 5.44 µM
same,inhibition at 100 µM,62.3 ± 1.28%
O=C(/C=C/c1ccc(-c2cccc(Cl)c2)o1)c1ccccc1 [Compound 4k],IC50,23.1 ± 3.65 µM
same,inhibition at 100 µM,69.52 ± 0.16%
"O=C(/C=C/c1ccc(-c2cc(Cl)ccc2Cl)o1)c1ccccc1 [Compound 4h, 1-phenyl-3-[5-(2′,5′-dichlorophenyl)-2-furyl]-2-propen-1-one]",IC50,16.1 ± 2.45 µM
same,inhibition at 100 µM,66.2 ± 1.36%
O=C(/C=C/c1ccc(-c2ccc([N+](=O)[O-])cc2[N+](=O)[O-])o1)c1ccccc1 [Compound 4q],IC50,44.4 ± 6.91 µM
same,inhibition at 100 µM,54.7 ± 0.73%
O=C(/C=C/c1ccc(-c2cc(Cl)cc(Cl)c2)o1)c1ccccc1 [Compound 4g],urease inhibition activity (in words),inactive
same,inhibition at 100 µM,39.7 ± 2.46%
O=C(/C=C/c1ccc(-c2cccc([N+](=O)[O-])c2)o1)c1ccccc1 [Compound 4d],urease inhibition activity (in words),inactive
same,inhibition at 100 µM,46.5 ± 0.91%
O=C(/C=C/c1ccc(-c2ccc([N+](=O)[O-])cc2)o1)c1ccccc1 [Compound 4a],IC50,91.9 ± 2.24 µM
same,inhibition at 100 µM,50.7 ± 0.62%
O=C(/C=C/c1ccc(-c2ccc(Br)cc2)o1)c1ccccc1 [Compound 4c],urease inhibition activity (in words),inactive
same,inhibition at 100 µM,39.41 ± 0.34%
O=C(/C=C/c1ccc(-c2cc(Cl)ccc2[N+](=O)[O-])o1)c1ccccc1 [Compound 4i],IC50,90.8 ± 8.99 µM
same,inhibition at 100 µM,51.7 ± 1.62%
